Assay: Compatibility test of atorvastatin calcium with excipients (water added, sealed vial, 50° C., two weeks; impurities by HPLC, physical changes)
Assay type: physicochemical
Conditions: for Compatibility: 0.2 ml water added, sealed vial, two weeks
Description: In order for an excipient to be used with an embodiment of the formulation of the present invention, it was required to perform acceptably during the compatibility testing. The acceptance criteria for the compatibility test were as follows. […] Physical stability was determined by examining the mixture's appearance in terms of discoloration, liquefaction, dryness and odor or gas.
A granulate or dry mix of the drug substance and each of the excipients requested to the expected ratio in the possible final formulas was prepared. The granulate was prepared manually with a mortar and pestle. The active ingredient is mixed with the ingredient(s) to be tested, then granulated in a mortar and pestle using the aqueous granulation solution. The wet granulate was then dried in an oven at 60° C. down to LOD<5% and then milled.
The compatibility test was performed as follows. Each mixture (blend or granulate) was transferred to a vial, 0.2 ml of purified water was added, and the mixtures were mixed with a Pasteur pipette, which was then broken and inserted in the vial in order to avoid any loss of material.
The vials were then sealed and stored at a temperature of 50° C. for two weeks.
After two weeks the vials were removed, examined for physical changes and were tested for impurities according to the HPLC method (RD 2000-1) as described in greater detail below.
75 ml of diluent was added and the samples were shaken for 30 min, and then diluted to volume with diluent.
5 ml of the above mentioned solution was transferred and diluted in a 10 ml volumetric flask. The diluent for all experiments was water:methanol mixture.
Part of each dry granulate was placed in a 34 ml Securitainer® (a regular secure medicine bottle made from high density polyethylene; available from Jaycare Ltd in the United Kingdom) and placed in incubator at 40° C./75% RH for a 6 month stability study. Next, separate samples containing 1 g of each dry granulate were mixed with 200 μl water (LOD of the blend 16.67%), closed in a glass vial and stored at 50° C. for a 2 week compatibility test.
Results of those compatibility and stability studies are summarized in table 4; a more detailed description of the same results is provided in table 5 below. Stability or compatibility criteria were defined as: maximum known impurity <0.5% (preferably comprising one or both of the Desfluoro (Desfl.) or lactone (Lact.) degradation forms); maximum unknown impurity <0.5%, preferably <0.3%; total impurities <1.5%.
One gram of each blend was mixed with 200 μl purified water (LOD of the blend was 16.67%), placed in a closed glass vial and placed for 2 weeks in an incubator at 50° C. for a compatibility test.

[1] = amorphous atorvastatin calcium, no excipient, 2 weeks, 16.7% LOD

Compound `CC(C)c1c(C(=O)Nc2ccccc2)c(-c2ccccc2)c(-c2ccc(F)cc2)n1CC[C@@H](O)C[C@@H](O)CC(=O)[O-].CC(C)c1c(C(=O)Nc2ccccc2)c(-c2ccccc2)c(-c2ccc(F)cc2)n1CC[C@@H](O)C[C@@H](O)CC(=O)[O-].[Ca+2]` [Reference (no excipient added)] has a Desfluoro [1] of 0.12%, a Lactone [1] of 0.04% and a Max unknown impurity [1] of 0.05%. The “Total Impurities” value [1] was 0.33%.
In the case of `CC(C)c1c(C(=O)Nc2ccccc2)c(-c2ccccc2)c(-c2ccc(F)cc2)n1CC[C@@H](O)C[C@@H](O)CC(=O)[O-].CC(C)c1c(C(=O)Nc2ccccc2)c(-c2ccccc2)c(-c2ccc(F)cc2)n1CC[C@@H](O)C[C@@H](O)CC(=O)[O-].[Ca+2]` [Vial 1], the Compatibility (amorphous Atorvastatin Ca dry mixes) is reported as “Stable” and the Compatibility (crystalline form VI Atorvastatin Ca granulates) is reported as “Stable”.
